Like-named read-outs stand apart in the source and are kept apart here. Each block holds one molecule with its values, some of them ahead of it.
Columns and labels:
[1] = test system: CaCo-2 intestinal epithelial cells; assay: Transepithelial resistance (TEER) of CaCo-2 cells exposed to TNFα and IFNγ; type: cell-based; conditions: for epithelial barrier resistance: TNFα 10 ng/ml, IFNγ 100 ng/ml, compounds 1 μM, 48 hrs of treatment; for transepithelial resistance after combined TNFα and IFNγ exposure: TNFα 20 ng/ml, IFNγ 200 ng/ml, 24 hrs of treatment
Procedure: The intestinal epithelial barrier plays a central role in the pathophysiology of multiple chronic inflammatory and autoimmune diseases. Intestinal epithelial cells provide a physical barrier that interacts with immune cells and protects internal cavities from mucosal bacterial and antigen intrusion. Intestinal inflammation during IBD is associated with disruption of this barrier and cytokines like TNFα play important roles.
At confluence TEER is measured and TNFα along with compounds are added as described above. Compound-induced TEER is determined after correction with measurement prior to treatment.

[2] = Formulation visual stability (DMA/PG/PEG 300/water); type: physicochemical; conditions: 25° C., 10-11 mg/mL in DMA/PG/PEG 300/Water
Procedure: All formulations were conducted with FDA approved excipients and with high purity material such as USP grade quality. Formulation stability of test articles are performed using HPLC purity method described within analytical section. This formula may be used for oral administration of the compounds described herein; […]. Since these compounds have high solubility in lower pH as described in the solubility study section, the intervenous delivery is performed with 100% phosphate buffer solution of pH 6.5 allowing up to 7 mg/mL concentration. The formulated test articles can be store at 4° C. Prior to dosing, it should be warmed and vortexed for about 1 min to make a homogenous solution. If needed, filter through 0.2 μM syringe filter to maintain clean and sterile.

[3] = pH solubility; type: physicochemical; conditions: for solubility at 24 h: aqueous solution, thermodynamic from solid, read-out: Solubility Concentration; for solubility higher than the solubility of compound 201: pH 7.4
Procedure: Saturated solutions of selected compounds were prepared at pH 1, 4, 6.5, and 7.4. The pH conditions selected are within the extremes of the normal physiological pH of the human gastrointestinal tract. Solubility testing of drug under different pH conditions was carried out by adding an excess amount of drug to each pH condition initiating with 1 mg/mL and then confirmed saturation by visual observation of undissolved material. The saturated solutions are continuously shaking at 6,000 rpm for 24 hours at room temperature. The saturated solutions were filtered through Millipore 0.22 um PVDF hydrophilic filters and subjected to HPLC to evaluate the solubility concentration of the test compound. Filtered saturated solutions were diluted with acetonitrile:water (50:50) within the calibration standard curve. A calibration curve of test compound contained […] standards at concentrations 0.25, 0.5, 1.0, 5.0, 10, 25, 50 and 100 μg/mL were prepared in acetonitrile:water (50:50).
Compounds were measured in filtered saturated solution using an Agilent 1260 Infinity II Lab LC Series HPLC (1260 quat pump, 1260 vial autosampler, ICC column oven, 1260 DAD WR detector). The chromatographic separation was achieved by Phenomenex Synergi Polar RP column (150×4.6 mm, 4 μm, 80 Å). The mobile phase was gradient (A: water with 0.1% trifluoroacetic acid, B: acetonitrile with 0.1% trifluoroacetic acid; A/B (99:1) from 0 minute; to A/B (1:99) from 0 to 10 minutes; A/B (1:99) from 10 to 12 minutes; to A/B (99:1) from 12 to 12.1 minutes; A/B (99:1) from 12.1 to 13 minutes) pumped at a flow rate of 1 mL/min. The detection of the eluent was monitored at 254 nm. The column oven was set at 35° C. Injection volume was 10 μL, unless otherwise specified. Data acquisition and peak integrations were obtained by OpenLAB CDS Version 2.4 (Agilent) operating with Windows (Microsoft).
Solubility is the ability of a drug to dissolve in an aqueous solution under different pH conditions. It is defined as the amount of substance that passes into solution to achieve a saturated solution at a constant temperature and pressure. The purpose of this study was to determine the solubility of selected compounds under different pH conditions and determine whether an oral solution is feasible or a suspension would be better to support the drug formulation process for pre-clinical studies. The pH conditions selected were within the extremes of the normal physiological pH of the human gastrointestinal tract, such as pH 1, pH 4, pH 6.5, and pH 7.4.

[4] = test system: 5637; assay: 5637 bladder cancer cell viability (Real-Time-Glo); type: cell-based; conditions: 72 hr; read-out: IC50, Cell line: 5637
Procedure: To determine the plating density for cell viability assays, for each cell line, cells were counted and diluted to final densities of 2.5, 5, 10 and 20 thousand per 100 μl of their respective growth media per well in 96 well plates. A Promega Real-Time-Glo cell viability kit was used to determine the optimal concentration for cell plating so that each cell line would be within the linear part of its growth curve after 72 hrs in culture. For the determination of test compound IC50s different cancer cell lines were plated in 96 well plates in the pre-determined optimal density for each cell line. Test compounds were then added at different concentrations for the creation of six-point curve and cell density was determined using the Promega Real-Time-Glo cell viability kit after 24, 48, and 72 hrs in culture. Test compound 72 hr IC50s were calculated using the AAT Bioquest IC50 calculator.
The following compounds are evaluated for their ability to block cancer cell growth in colon (HT-29), liver (HepG2), pancreatic (MiaPaca-2) and bladder (5637) cancer cell lines. Specifically, the Promega Real-Time-Glo cell viability kit was used to determine the optimal concentration for cell plating so that each cell line would be within the linear part of its growth curve after 72 hrs in culture. For the determination of test compound IC50s different cancer cell lines are plated in 96 well plates in the pre-determined optimal density for each cell line. Test compounds are then added at different concentrations for the creation of six-point curve and cell density is determined using the Promega Real-Time-Glo cell viability kit after 24, 48, and 72 hrs in culture. Test compound 72 hr IC50s is calculated using the AAT Bioquest IC50 calculator.

[5] = test system: Naïve human CD4 T cells; assay: Differentiation of naïve human CD4 T cells into FoxP3+ Tregs (flow cytometry); type: cell-based; conditions: 500 nM, 5 days; for Tregs (%): anti-CD3 and anti-CD28 100 ng/ml, CD4highFoxP3high population; for increase of the number of Tregs over untreated: baseline 3.2%
Procedure: Naïve human CD4 T cells were cultured in DMEM supplemented with 10% heat-inactivated FBS, 2 mM glutamine, 100 U/ml penicillin, 100 μg/ml streptomycin and 25 mM Hepes. Human CD4 T cells were treated with anti-CD3 and anti-CD28 (100 ng/ml) together with small molecule compounds (500 nM) for 5 days. FoxP3 and CD4 positive cells were stained and imaged in a BD LSRII flow cytometer. The gated area represents the percentage CD4^highFoxP3^high immune cell population. Furthermore, the same small molecule compounds were evaluated for their effects on IL17 protein levels in human CD4 T cells by using an ELISA assay (R&D systems, cat no. D1700).

[6] = CaCo-2, TNFα along with compounds

Compound: COc1cc2c(NC3CCS(=O)(=O)CC3)nc(N3CCC(F)(F)CC3)nc2cc1OCCCN1CCCC1 [Compound 1, 4-((2-(4,4-difluoropiperidin-1-yl)-6-methoxy-7-(3-(pyrrolidin-1-yl)propoxy)quinazolin-4-yl)amino)tetrahydro-2H-thiopyran 1,1-dioxide]
- epithelial barrier resistance [1]: recovered epithelial barrier resistance levels back to those of untreated cells
- transepithelial resistance after combined TNFα and IFNγ exposure [1]: ameliorated the disruptive effects
- TEER ([1]; vs control group): +
- Appearance ([2]; 30 min): clear
- Appearance ([2]; 1 h): clear
- Appearance ([2]; 5 h): clear
- Appearance ([2]; 24 h): clear
- Appearance ([2]; 7 d): clear
- solubility at 24 h ([3]; pH 4, aqueous buffer): 11600 µg/mL
- solubility at 24 h ([3]; pH 6.5, aqueous buffer): 6050 µg/mL
- solubility at 24 h ([3]; pH 7.4, aqueous buffer): 424 µg/mL
- solubility higher than the solubility of compound 201 [3]: 40 fold

Compound: COc1cc2c(NC3CCN(C(C)C)CC3)nc(-n3ccnc3)nc2cc1OCCCN1CCCC1 [Compound 156, 2-(1H-imidazol-1-yl)-N-(1-isopropylpiperidin-4-yl)-6-methoxy-7-(3-(pyrrolidin-1-yl)propoxy)quinazolin-4-amine]
- IC50 [4]: 1 to 5 µM

Compound: COc1cc2c(NC3CCOCC3)nc(N3CCCC3)nc2cc1OCCCN1CCCC1 [Compound 164, 6-methoxy-2-(pyrrolidin-1-yl)-7-(3-(pyrrolidin-1-yl)propoxy)-N-(tetrahydro-2H-pyran-4-yl)quinazolin-4-amine]
- TEER [1, 6]: ++
- IC50 [4]: 5 to 10 µM

Compound: COc1cc2c(NC3CCOCC3)nc(N3CCC3)nc2cc1OCCCN1CCCC1 [Compound 174, 2-(azetidin-1-yl)-6-methoxy-7-(3-(pyrrolidin-1-yl)propoxy)-N-(tetrahydro-2H-pyran-4-yl)quinazolin-4-amine]
- IC50 [4]: 10 to 20 µM

Compound: COc1cc2c(NC3CCN(C(C)C)CC3)nc(N3CCC3)nc2cc1OCCCN1CCCC1 [Compound 234, 2-(azetidin-1-yl)-N-(1-isopropylpiperidin-4-yl)-6-methoxy-7-(3-(pyrrolidin-1-yl)propoxy)quinazolin-4-amine]
- IC50 [4]: 5 to 10 µM

Compound: COc1cc2c(NC3CCN(C(C)C)CC3)nc(C#N)nc2cc1OCCCN1CCCC1 [Compound 235, 4-((1-isopropylpiperidin-4-yl)amino)-6-methoxy-7-(3-(pyrrolidin-1-yl)propoxy)quinazoline-2-carbonitrile]
- IC50 [4]: 5 to 10 µM

Compound: COc1cc2c(NC3CCN(C(C)C)CC3)nc(N3CCC(F)(F)CC3)nc2cc1OCCCN1CCCC1 [Compound 400, 2-(4,4-difluoropiperidin-1-yl)-N-(1-isopropylpiperidin-4-yl)-6-methoxy-7-(3-(pyrrolidin-1-yl)propoxy)quinazolin-4-amine, reference compound]
- epithelial barrier resistance [1]: increased intestinal permeability
- TEER ([1]; vs control group): −
- Appearance ([2]; 30 min): clear
- Appearance ([2]; 1 h): clear
- Appearance ([2]; 5 h): clear
- Appearance ([2]; 24 h): clear
- Appearance ([2]; 7 d): clear
- solubility at 24 h ([3]; pH 1, simulated gastric fluid): 22800 µg/mL
- solubility at 24 h ([3]; pH 4, aqueous buffer): 13200 µg/mL
- solubility at 24 h ([3]; pH 6.5, aqueous buffer): 7510 µg/mL
- solubility at 24 h ([3]; pH 7.4, aqueous buffer): 11 µg/mL
- Tregs (%) [5]: 4.7%
- increase of the number of Tregs over untreated [5]: 1.46 fold

Further lines, with some results ahead:

- IC50 [4]: 10 to 20 µM
- Appearance ([2]; 30 min): clear
- Appearance ([2]; 1 h): clear
- Appearance ([2]; 5 h): clear
- Appearance ([2]; 24 h): clear
- Appearance ([2]; 7 d): clear
- solubility at 24 h ([3]; pH 6.5, aqueous buffer): 27500 µg/mL
- solubility at 24 h ([3]; pH 7.4, aqueous buffer): 449 µg/mL
- solubility higher than the solubility of compound 201 [3]: 40 fold
Compound: COc1cc2c(NC3CCOCC3)nc(N3CCC(F)(F)CC3)nc2cc1OCCCN1CCCC1 [Compound 2, 2-(4,4-difluoropiperidin-1-yl)-6-methoxy-7-(3-(pyrrolidin-1-yl)propoxy)-N-(tetrahydro-2H-pyran-4-yl)quinazolin-4-amine]
- epithelial barrier resistance [1]: recovered epithelial barrier resistance levels back to those of untreated cells
- transepithelial resistance after combined TNFα and IFNγ exposure [1]: ameliorated the disruptive effects
- TEER ([1]; vs control group): +
- Tregs (%) [5]: 20.1%
- increase of the number of Tregs over untreated [5]: 6.28 fold

- IC50 [4]: 5 to 10 µM
Compound: COCCN1CCC(Nc2nc(N3CCC(F)(F)CC3)nc3cc(OCCCN4CCCC4)c(OC)cc23)CC1 [Compound 3, 2-(4,4-difluoropiperidin-1-yl)-6-methoxy-N-(1-(2-methoxyethyl)piperidin-4-yl)-7-(3-(pyrrolidin-1-yl)propoxy)quinazolin-4-amine]

- IC50 [4]: 10 to 20 µM
Compound: COCCNc1nc(N2CCC(F)(F)CC2)nc2cc(OCCCN3CCCC3)c(OC)cc12 [Compound 4, 2-(4,4-difluoropiperidin-1-yl)-6-methoxy-N-(2-methoxyethyl)-7-(3-(pyrrolidin-1-yl)propoxy)quinazolin-4-amine]

- IC50 [4]: 1 to 5 µM
Compound: COc1cc2c(Nc3ccncc3)nc(N3CCC(F)(F)CC3)nc2cc1OCCCN1CCCC1 [Compound 7, 2-(4,4-difluoropiperidin-1-yl)-6-methoxy-N-(pyridin-4-yl)-7-(3-(pyrrolidin-1-yl)propoxy)quinazolin-4-amine]
- TEER [1, 6]: −
- epithelial barrier resistance [1]: recovered epithelial barrier resistance levels back to those of untreated cells

- solubility at 24 h ([3]; pH 4, aqueous buffer): 4450 µg/mL
- solubility at 24 h ([3]; pH 6.5, aqueous buffer): 3180 µg/mL
- solubility at 24 h ([3]; pH 7.4, aqueous buffer): 245 µg/mL
Compound: COc1cc2c(NC3COC3)nc(N3CCC(F)(F)CC3)nc2cc1OCCCN1CCCC1 [Compound 11, 2-(4,4-difluoropiperidin-1-yl)-6-methoxy-N-(oxetan-3-yl)-7-(3-(pyrrolidin-1-yl)propoxy)quinazolin-4-amine]
